Test results: publication PMC4850841 (Journal of medicinal chemistry, 2013)
Read-outs that look alike come from different tables or passages of the source.

Assays:
[1] = Stability of potentiator activity of compound solution; assay type: physicochemical
[2] = test system: GluN2C/D-containing NMDA receptors; test: Potentiation of NMDA receptors, results stated jointly for both subtypes; assay type: cell-based, rat; settings: read-out: EC50, GluN2C/GluN2D stated jointly; maximally effective concentrations of glutamate and glycine
GluK2 = GluK2 (Rattus norvegicus, UniProt P42260); test: Two electrode voltage clamp recordings, Xenopus laevis oocytes; assay type: cell-based; settings: co-applied with 100 µM glutamate
[3] = test system: GluN2C/D-containing NMDA receptors; settings: cited from earlier work
GluA1 = GluA1 (Rattus norvegicus, UniProt P19490); test: Two electrode voltage clamp recordings, Xenopus laevis oocytes; assay type: cell-based; settings: co-applied with 100 µM glutamate
GluN1/GluN2C [4] = target: GluN1/GluN2C (Rattus norvegicus, UniProt P35439+Q00961); test: as above; assay type: cell-based
GluN1/GluN2D = GluN1/GluN2D (Rattus norvegicus, UniProt Q62645); test: as above; assay type: cell-based; settings: 100 µM glutamate, 30 µM glycine
GluN1/GluN2A = GluN1/GluN2A (Rattus norvegicus, UniProt Q00959); test: as above; assay type: cell-based; settings: 100 µM glutamate, 30 µM glycine
GluN1/GluN2B = GluN1/GluN2B (Rattus norvegicus, UniProt Q00960); test: as above; assay type: cell-based; settings: 100 µM glutamate, 30 µM glycine
GluN1/GluN2C [5] = target: GluN1/GluN2C (Rattus norvegicus, UniProt Q00961); test: as above; assay type: cell-based; settings: 100 µM glutamate, 30 µM glycine
[6] = test system: peripheral benzodiazepine site; assay type: binding; settings: 5 µM compound 83; n=4
sigma receptor σ2 = assay type: binding; settings: 5 µM compound 83; n=4
[7] = test system: brain benzodiazepine site; assay type: binding; settings: 5 µM compound 83; n=4
sigma receptor σ1 = assay type: binding; settings: 5 µM compound 83; n=4
[8] = test system: GABA, glycine, serotonin, nicotinic acetylcholine, AMPA, kainate, and purinergic receptors; assay type: cell-based
κ opioid receptors = κ opioid receptors (Homo sapiens, UniProt P41145); assay type: binding; settings: 5 µM compound 83

GluA1, sequence (P19490 19-907): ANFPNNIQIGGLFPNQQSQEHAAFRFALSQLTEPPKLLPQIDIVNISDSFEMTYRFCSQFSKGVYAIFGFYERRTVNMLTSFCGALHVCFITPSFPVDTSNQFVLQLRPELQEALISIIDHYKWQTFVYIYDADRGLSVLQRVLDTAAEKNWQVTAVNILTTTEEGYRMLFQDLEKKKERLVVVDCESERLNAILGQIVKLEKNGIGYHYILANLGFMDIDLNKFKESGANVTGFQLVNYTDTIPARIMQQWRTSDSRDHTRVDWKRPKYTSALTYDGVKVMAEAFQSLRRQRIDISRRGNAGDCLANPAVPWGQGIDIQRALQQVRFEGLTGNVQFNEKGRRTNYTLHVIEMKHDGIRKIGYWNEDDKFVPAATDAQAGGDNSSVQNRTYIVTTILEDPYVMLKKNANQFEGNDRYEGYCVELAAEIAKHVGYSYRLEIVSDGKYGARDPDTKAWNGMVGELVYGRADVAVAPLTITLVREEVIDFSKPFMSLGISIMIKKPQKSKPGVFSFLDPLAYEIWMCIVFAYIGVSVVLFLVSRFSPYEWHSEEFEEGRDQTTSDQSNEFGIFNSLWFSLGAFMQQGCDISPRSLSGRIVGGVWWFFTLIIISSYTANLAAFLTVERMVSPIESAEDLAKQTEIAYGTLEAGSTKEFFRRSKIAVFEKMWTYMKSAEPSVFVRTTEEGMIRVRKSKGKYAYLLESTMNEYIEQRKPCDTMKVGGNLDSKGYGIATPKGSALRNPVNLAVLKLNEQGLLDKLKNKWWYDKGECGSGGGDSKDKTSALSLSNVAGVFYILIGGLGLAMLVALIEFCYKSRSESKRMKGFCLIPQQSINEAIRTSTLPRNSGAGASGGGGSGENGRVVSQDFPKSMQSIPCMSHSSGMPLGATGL
GluN1/GluN2D, sequence (Q62645 28-1323, other chains not shown): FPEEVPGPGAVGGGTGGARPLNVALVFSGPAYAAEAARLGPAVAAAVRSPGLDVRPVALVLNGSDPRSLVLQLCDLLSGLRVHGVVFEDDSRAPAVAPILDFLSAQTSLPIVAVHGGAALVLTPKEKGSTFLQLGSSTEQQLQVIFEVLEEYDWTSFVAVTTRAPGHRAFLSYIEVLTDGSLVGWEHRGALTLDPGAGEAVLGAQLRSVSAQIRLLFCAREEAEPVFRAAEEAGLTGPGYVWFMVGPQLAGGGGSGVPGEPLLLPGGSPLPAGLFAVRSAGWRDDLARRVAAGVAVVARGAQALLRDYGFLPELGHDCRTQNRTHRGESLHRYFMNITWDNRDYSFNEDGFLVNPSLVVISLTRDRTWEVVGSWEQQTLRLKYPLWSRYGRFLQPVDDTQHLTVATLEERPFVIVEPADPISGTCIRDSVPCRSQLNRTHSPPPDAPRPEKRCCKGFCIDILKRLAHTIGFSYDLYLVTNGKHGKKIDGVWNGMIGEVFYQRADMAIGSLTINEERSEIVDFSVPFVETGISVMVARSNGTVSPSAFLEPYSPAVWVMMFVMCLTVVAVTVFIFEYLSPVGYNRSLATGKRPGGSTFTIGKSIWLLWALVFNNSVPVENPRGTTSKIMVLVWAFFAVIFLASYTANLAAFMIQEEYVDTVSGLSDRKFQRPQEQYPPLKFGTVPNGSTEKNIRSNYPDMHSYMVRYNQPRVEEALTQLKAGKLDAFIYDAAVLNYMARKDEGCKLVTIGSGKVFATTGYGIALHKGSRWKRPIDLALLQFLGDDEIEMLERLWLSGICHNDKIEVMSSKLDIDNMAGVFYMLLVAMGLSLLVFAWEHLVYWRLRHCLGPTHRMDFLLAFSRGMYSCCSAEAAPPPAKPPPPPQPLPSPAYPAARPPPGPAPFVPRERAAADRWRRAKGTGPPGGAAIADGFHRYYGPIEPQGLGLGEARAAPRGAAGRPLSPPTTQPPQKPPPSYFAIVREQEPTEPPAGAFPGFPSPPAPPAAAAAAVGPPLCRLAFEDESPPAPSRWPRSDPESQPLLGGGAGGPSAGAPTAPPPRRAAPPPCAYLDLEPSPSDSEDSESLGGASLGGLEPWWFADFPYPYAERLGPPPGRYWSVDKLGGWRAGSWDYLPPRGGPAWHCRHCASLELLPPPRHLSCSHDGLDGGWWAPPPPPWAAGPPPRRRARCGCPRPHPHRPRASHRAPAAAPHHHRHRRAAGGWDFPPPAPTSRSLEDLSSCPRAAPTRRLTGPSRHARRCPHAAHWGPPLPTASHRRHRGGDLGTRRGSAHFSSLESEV
GluN1/GluN2B, sequence (Q00960 27-1482, other chains not shown): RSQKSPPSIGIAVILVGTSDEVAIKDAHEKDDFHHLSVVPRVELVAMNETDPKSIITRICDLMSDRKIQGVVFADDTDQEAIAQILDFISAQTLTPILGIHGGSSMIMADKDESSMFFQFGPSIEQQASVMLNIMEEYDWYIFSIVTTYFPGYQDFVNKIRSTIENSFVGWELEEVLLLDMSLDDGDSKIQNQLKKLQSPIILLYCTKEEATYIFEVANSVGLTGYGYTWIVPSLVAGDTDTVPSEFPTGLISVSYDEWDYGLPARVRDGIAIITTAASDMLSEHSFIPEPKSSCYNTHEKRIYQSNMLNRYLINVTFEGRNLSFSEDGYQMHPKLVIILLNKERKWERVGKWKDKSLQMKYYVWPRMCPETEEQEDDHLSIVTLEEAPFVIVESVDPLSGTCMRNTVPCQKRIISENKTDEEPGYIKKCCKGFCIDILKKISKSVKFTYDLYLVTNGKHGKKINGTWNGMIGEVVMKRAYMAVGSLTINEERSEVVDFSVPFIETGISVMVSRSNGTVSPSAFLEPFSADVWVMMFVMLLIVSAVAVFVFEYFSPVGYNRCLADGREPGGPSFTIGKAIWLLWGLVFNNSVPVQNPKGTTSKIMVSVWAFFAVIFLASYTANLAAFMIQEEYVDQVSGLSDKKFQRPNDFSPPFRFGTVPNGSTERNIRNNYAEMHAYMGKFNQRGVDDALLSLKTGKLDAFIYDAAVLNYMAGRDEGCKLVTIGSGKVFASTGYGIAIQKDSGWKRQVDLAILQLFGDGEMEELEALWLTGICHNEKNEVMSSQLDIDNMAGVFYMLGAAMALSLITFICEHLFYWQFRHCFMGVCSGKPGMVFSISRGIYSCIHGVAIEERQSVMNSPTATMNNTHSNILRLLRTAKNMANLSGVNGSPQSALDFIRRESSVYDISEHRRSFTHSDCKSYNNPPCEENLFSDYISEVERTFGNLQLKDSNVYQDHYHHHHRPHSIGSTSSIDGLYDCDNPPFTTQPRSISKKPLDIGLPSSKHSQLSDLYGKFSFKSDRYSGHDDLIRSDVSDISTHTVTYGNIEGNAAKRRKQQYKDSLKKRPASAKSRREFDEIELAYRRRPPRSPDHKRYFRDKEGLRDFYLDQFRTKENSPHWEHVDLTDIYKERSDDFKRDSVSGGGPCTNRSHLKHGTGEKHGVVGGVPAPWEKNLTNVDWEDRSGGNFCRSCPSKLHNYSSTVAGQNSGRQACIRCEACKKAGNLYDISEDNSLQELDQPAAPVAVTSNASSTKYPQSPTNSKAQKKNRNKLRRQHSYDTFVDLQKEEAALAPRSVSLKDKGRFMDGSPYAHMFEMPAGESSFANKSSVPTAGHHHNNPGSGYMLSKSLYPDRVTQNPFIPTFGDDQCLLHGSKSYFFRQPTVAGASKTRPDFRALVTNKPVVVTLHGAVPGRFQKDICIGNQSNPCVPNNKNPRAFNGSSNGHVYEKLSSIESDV
GluN1/GluN2C (Rattus norvegicus, UniProt Q00961), sequence (Q00961 20-1237, other chains not shown): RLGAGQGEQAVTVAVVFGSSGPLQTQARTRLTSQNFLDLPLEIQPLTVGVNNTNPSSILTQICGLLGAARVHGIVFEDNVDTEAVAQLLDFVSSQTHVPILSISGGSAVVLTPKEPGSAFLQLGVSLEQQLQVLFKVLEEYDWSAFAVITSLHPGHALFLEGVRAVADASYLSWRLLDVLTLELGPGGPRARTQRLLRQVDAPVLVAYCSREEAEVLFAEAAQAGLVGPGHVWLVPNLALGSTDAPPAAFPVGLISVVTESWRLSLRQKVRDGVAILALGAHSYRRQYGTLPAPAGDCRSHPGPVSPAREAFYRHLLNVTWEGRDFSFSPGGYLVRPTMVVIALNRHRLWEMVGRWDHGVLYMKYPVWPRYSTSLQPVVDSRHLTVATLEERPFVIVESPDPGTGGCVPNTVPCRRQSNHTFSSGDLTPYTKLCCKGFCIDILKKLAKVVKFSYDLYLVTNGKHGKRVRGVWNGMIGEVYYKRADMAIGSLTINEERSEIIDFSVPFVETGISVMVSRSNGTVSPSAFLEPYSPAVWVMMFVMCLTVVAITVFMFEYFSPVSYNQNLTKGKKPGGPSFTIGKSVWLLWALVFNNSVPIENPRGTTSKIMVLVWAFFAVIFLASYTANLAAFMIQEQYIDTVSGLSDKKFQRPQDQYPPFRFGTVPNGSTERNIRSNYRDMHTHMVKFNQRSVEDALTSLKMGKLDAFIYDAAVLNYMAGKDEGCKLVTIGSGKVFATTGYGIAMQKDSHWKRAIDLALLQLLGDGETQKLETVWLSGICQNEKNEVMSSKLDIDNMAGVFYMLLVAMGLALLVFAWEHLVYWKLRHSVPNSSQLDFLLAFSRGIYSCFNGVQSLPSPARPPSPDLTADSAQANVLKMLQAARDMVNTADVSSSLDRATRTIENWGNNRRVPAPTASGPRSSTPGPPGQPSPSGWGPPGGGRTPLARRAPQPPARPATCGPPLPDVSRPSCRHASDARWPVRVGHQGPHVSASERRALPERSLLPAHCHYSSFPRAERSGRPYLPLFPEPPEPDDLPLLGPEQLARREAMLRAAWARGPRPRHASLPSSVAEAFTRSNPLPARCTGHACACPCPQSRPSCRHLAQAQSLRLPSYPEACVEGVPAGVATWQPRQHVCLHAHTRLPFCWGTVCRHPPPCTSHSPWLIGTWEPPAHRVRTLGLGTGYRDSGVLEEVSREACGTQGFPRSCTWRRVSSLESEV
GluN1/GluN2C (Rattus norvegicus, UniProt P35439+Q00961), sequence (Q00961 20-1237, other chains not shown): as above

SMILES	activity of solution after 24 hours ([1]; 24 hours after making the solution)	activity (potency and efficacy) retained without loss until ([1]; compound solutions tested on GluN1/GluN2C in BHK cells at different time points) [h]	EC50 [2] [µM]	effect on GluK2-mediated currents (GluK2)	enhancement of receptor responses [3]	EC50 ([3]; read-out: reported EC50) [µM]	effect on homomeric GluA1 responses (GluA1)	EC50 (GluN1/GluN2C [4]) [µM]	activity at GluN1/GluN2D (GluN1/GluN2D)	effect on GluN1/GluN2A responses (GluN1/GluN2A)	effect on GluN1/GluN2B responses (GluN1/GluN2B)	activity at GluN1/GluN2C (GluN1/GluN2C [5])	inhibition of ligand binding [6]	inhibition of ligand binding (sigma receptor σ2)	inhibition of ligand binding [7]	inhibition of ligand binding (sigma receptor σ1)	selectivity for GluN2C or GluN2D compared to these receptors [8]	inhibition of off-target receptors ([8]; 3 µM compound 83)	potentiation of off-target receptors ([8]; 3 µM compound 83) [%]	initial screen at κ opioid receptors (κ opioid receptors)
COc1ccc(OCC2c3cc(OC)c(OC)cc3CCN2C(=O)c2cccc(Cl)c2)cc1 (stereo not shown) [compound 2]	no activity	6	4.6 to 5	no effect	less than 2 fold	3	no effects	4.6												
COc1cc2c(cc1OC)CN(C(=O)c1ccccc1)CC2 [compound 5, (6,7-dimethoxy-3,4-dihydroisoquinolin-2(1H)-yl)(phenyl)methanone]							no effects		inactive	inactive	inactive	inactive								
COc1ccc(OCC2c3ccc(OCc4ccccc4)cc3CCN2C(=O)c2cccc(Br)c2)cc1 (stereo not shown) [compound 83, (6-(benzyloxy)-1-((4-methoxyphenoxy)methyl)-3,4-dihydroisoquinolin-2(1H)-yl)(3-bromophenyl)methanone]			0.3 to 0.4										less than 50%	less than 50%	less than 50%	less than 50%	approximately 100 fold	less than 10%	< 5	significant inhibition
